Patent publication US10028933B2, “Compositions and methods for inhibiting the growth of multi-drug resistant microbes” (priority 2015, dated 2018)
“Also recorded” adds a separate entry of the source.

Tests used:
[1] = long term oral exposures up to 33 weeks; cited from earlier work
Salmonella Typhimurium = conditions: cited from earlier work
[2] = preclinical studies; cited from earlier work
Francisella tularensis = conditions: cited from earlier work
P. aeruginosa [3] = experiment: direct bacterial killing assay in media alone of CF clinical P. aeruginosa isolate (24 hours); conditions: media devoid of human macrophages or neutrophils, n=3
P. aeruginosa [4] = conditions: AR-13 alone
MRSA = experiment: bacterial killing assay of CF clinical MRSA isolate in media (optical absorbance density, 24 hours); type: cell-based
human CF and non-CF MDMs = experiment: macrophage viability assay at 24 h
[5] = tested on: B. cenocepacia strain k56-2; conditions: 5 μM AR-13 alone
B. cenocepacia = experiment: direct bacterial killing assay in media alone (optical absorbance density over 24 hours)

| Structure (SMILES) | safety profile in phase I study [1] | antibacterial activity against intracellular Salmonella Typhimurium in macrophages (Salmonella Typhimurium) | accumulation in tissues relative to blood level concentrations [2] | blood brain barrier penetration [2] | antibacterial activity against intracellular Francisella tularensis in macrophages (Francisella tularensis) | direct killing of P. aeruginosa in media (P. aeruginosa [3]) | reduction in P. aeruginosa burden in CF neutrophils (P. aeruginosa [4]; CF neutrophils) | reduction in P. aeruginosa burden in non-CF neutrophils (P. aeruginosa [4]; non-CF neutrophils) | killing of MRSA in media (MRSA; 24 hours, media) | reduction of optical absorbance density of MRSA compared to no treatment (MRSA; CF clinical MRSA isolate, 24 hour period, n=3) | AR-13 concentration of greatest efficacy against MRSA (dose titration) (MRSA; dose titration 5, 2.5, 1.25 μM, 24 hours, n=3) | AR-13 concentrations tolerated by CF and non-CF macrophages and neutrophils (human CF and non-CF MDMs; CF and non-CF macrophages and neutrophils) | macrophage viability (human CF and non-CF MDMs; human CF and non-CF MDMs, uninfected or infected with B. cenocepacia, 24 h) | AR-13 concentrations resulting in increased toxicity (human CF and non-CF MDMs; uninfected MDMs) | reduction in B. cenocepacia burden in infected CF and non-CF macrophages [5] | reduction of optical absorbance density of B. cenocepacia compared to no treatment (B. cenocepacia; AR-13 alone vs B. cenocepacia alone, media, 24 hour period, n=3) | direct killing / bacterial growth of B. cenocepacia in media alone (B. cenocepacia; media alone, 24 hours, AR-13 5 μM) |
| --- | --- | --- | --- | --- | --- | --- | --- | --- | --- | --- | --- | --- | --- | --- | --- | --- | --- |
| NCC(=O)Nc1ccc(-n2nc(C(F)(F)F)cc2-c2ccc3c(ccc4ccccc43)c2)cc1 [AR-12] | acceptable safety profile | antibacterial activity | exceeding the blood level concentrations by several fold | rapid blood brain barrier penetration | antibacterial activity | – | – | – | – | – | – | – | – | – | – | – | – |
| NS(=O)(=O)Nc1ccc(-n2nc(C(F)(F)F)cc2-c2ccc3c(ccc4ccccc43)c2)cc1 [AR-13, N-{4-[5-(Phenanthren-2-yl)-3-(trifluoromethyl)-1H-pyrazol-1-yl]phenyl}sulfuric diamide] | – | – | – | – | – | did not demonstrate direct killing; also recorded: did not enhance bacterial killing in media; also recorded: no direct effect | 70% | 66% | bacterial optical density increases as the dose of AR-13 decreases | about 1.3 fold | 5 µM | up to 10 μM | no significant differences in cell viability; also recorded: does not impact macrophage viability | above 10 μM | 23% | about 1.3 fold | significant reduction in bacterial growth; also recorded: direct killing effect |
